This note sets out measurements from patent US8748434B2 (Hoffman-La Roche Inc., priority 2012, dated 2014).

SMILES strings stand for the structures. pEC50: −log10 of the molar value.

In this experiment the target is T1, human GPBAR1 receptor (Homo sapiens, UniProt Q8TDU6).
T1 construct: expressed in transfected cells
T1 sequence (Q8TDU6 1-330): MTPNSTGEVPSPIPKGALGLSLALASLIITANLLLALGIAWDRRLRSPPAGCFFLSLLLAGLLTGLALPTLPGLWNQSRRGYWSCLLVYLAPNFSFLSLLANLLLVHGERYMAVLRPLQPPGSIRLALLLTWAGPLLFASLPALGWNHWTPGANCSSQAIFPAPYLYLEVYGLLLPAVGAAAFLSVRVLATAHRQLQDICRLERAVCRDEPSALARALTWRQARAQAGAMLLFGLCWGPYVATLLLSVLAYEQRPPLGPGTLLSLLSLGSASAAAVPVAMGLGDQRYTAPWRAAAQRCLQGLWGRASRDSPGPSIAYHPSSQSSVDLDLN
Kind of experiment: functional cAMP assay in CHO-dhfr(minus) cells expressing human GPBAR1 receptors. As to conditions: CHO-dhfr(minus) cells expressing human GPBAR1, compounds incubated 30 min at 30° C. The format is cell-based. The source says: The cDNA of the human GPBAR1 receptor (Genbank: NM 170699 with the exception of a silent C:G mutation at position 339 from the start codon) was amplified by polymerase chain reaction (PCR) from human cDNA and inserted into pCineo (Promega) by standard methods (Current Protocols in Molecular Biology, Wiley Press, ed. Ausubel et al.). The final clone was verified by DNA sequence analysis. The plasmid was transfected into CHO cells deficient in dihydrofolate reductase activity (CHO-dhfr−) using Lipofectamine plus (Invitrogen). Clones were isolated in limited dilution conditions and identified by activities in the cAMP assay using lithocholic acid as agonist. A clonal cell line displaying the greatest activity in cAMP increases was selected and identified as giving consistently good responses for up to at least 20 passages.
CHO-dhfr(minus) cells expressing human GPBAR1 receptors are seeded 17-24 hours prior to the experiment 50.000 cells per well in a black 96 well plate with flat clear bottom (Corning Costar #3904) in DMEM (Invitrogen No. 31331), 1×HT supplement, with 10% fetal calf serum and incubated at 5% CO2 and 37° C. in a humidified incubator. The growth medium was exchanged with Krebs Ringer Bicarbonate buffer with 1 mM IBMX and incubated at 30° C. for 30 min. Compounds were added to a final assay volume of 100 μl and incubated for 30 min at 30° C. The assay was stopped by the addition of 50 μl lysis reagent (Tris, NaCl, 1.5% Triton X100, 2.5% NP40, 10% NaN3) and 50 μl detection solutions (20 μM mAb Alexa700-cAMP 1:1, and 48 μM Ruthenium-2-AHA-cAMP) and shaked for 2 h at room temperature. The time-resolved energy transfer is measured by a TRF reader (Evotec Technologies GmbH, Hamburg Germany), equipped with a ND:YAG laser as excitation source. The plate is measured twice with the excitation at 355 nm and at the emission with a delay of 100 ns and a gate of 100 ns, total exposure time 10 s at 730 (bandwidth 30 nm) or 645 nm (bandwidth 75 nm), respectively. The measured signal at 730 nm has to be corrected for the ruthenium background, the direct excitation of Alexa and the buffer control. The FRET signal is calculated as follows: FRET=T730−Alexa730−P(T645−B645) with P=R^u730−B730/Ru645−B645, where T730 is the test well measured at […], T645 is the test well measured at 645 nm, B730 and B645 are the buffer controls at 730 nm and 645 nm, respectively. cAMP content is determined from the function of a standard curve spanning from 10 μM to 0.13 nM cAMP.
EC50 values were determined using Activity Base analysis (ID Business Solution, Limited). The EC50 values for a wide range of bile acids generated from this assay were in agreement with the values published in the scientific literature. Specificity for GPBAR1 was tested in non-transfected CHO cells in the same assay as above.
As a reminder, the pEC50 is the EC50 on a negative log10 scale, so that one unit is a factor of ten. Read a high pEC50 as a low EC50. For `CN(C(=O)c1cc(C(F)(F)F)cc(S(C)(=O)=O)c1)c1nnccc1-c1cccnc1OCC(F)(F)F` [Example 12, 3-Methanesulfonyl-N-methyl-N-{4-[2-(2,2,2-trifluoro-ethoxy)-pyridin-3-yl]-pyridazin-3-yl}-5-trifluoromethyl-benzamide], the pEC50 was 6.80. Take `COc1cc(F)ccc1-c1ccnnc1N(C)C(=O)c1cc(C(F)(F)F)cc(S(C)(=O)=O)c1` [Example 2, N-[4-(4-Fluoro-2-methoxy-phenyl)-pyridazin-3-yl]-3-methanesulfonyl-N-methyl-5-trifluoromethyl-benzamide]: the pEC50 is 7.12. The value for `COc1ncccc1-c1cc(Cl)nnc1N(C)C(=O)c1cc(C(F)(F)F)cc(S(C)(=O)=O)c1` [Example 8, N-[6-Chloro-4-(2-methoxy-pyridin-3-yl)-pyridazin-3-yl]-3-methanesulfonyl-N-methyl-5-trifluoromethyl-benzamide] was 5.82.

`Cc1ccccc1-c1ncncc1N(C)C(=O)c1cc(C(F)(F)F)cc(C(F)(F)F)c1` [Example 19, N-Methyl-N-(4-o-tolyl-pyrimidin-5-yl)-3,5-bis-trifluoromethyl-benzamide] gave a pEC50 of 5.83.

In turn, `Cc1ccccc1-c1cnncc1N(C)C(=O)c1cc(C(F)(F)F)cc(S(=O)(=O)CCCC(=O)O)c1` [Example 18, 4-{3-[Methyl-(5-o-tolyl-pyridazin-4-yl)-carbamoyl]-5-trifluoromethyl-benzenesulfonyl}-butyric acid] showed a pEC50 below 5.00. In the case of `CN(C(=O)c1cc(C(F)(F)F)cc(C(F)(F)F)c1)c1nnc(Cl)cc1-c1ccccc1` [Example 7, N-(6-Chloro-4-phenyl-pyridazin-3-yl)-N-methyl-3,5-bis-trifluoromethyl-benzamide] it was 6.52; in that of `CN(C(=O)c1cc(C(F)(F)F)cc(S(=O)(=O)N2CCOCC2)c1)c1nnc(Cl)cc1-c1ccccc1` [Example 6], 6.37; in that of `Cc1ccccc1-c1cnncc1N(C)C(=O)c1cc(Cl)cc(S(C)(=O)=O)c1` [Example 16, 3-Chloro-5-methanesulfonyl-N-methyl-N-(5-o-tolyl-pyridazin-4-yl)-benzamide], 6.18. The value for `COc1cc(F)ccc1-c1cc(C)nnc1N(C)C(=O)c1cc(C(F)(F)F)cc(S(C)(=O)=O)c1` [Example 3, N-[4-(4-Fluoro-2-methoxy-phenyl)-6-methyl-pyridazin-3-yl]-3-methanesulfonyl-N-methyl-5-trifluoromethyl-benzamide] was 6.75; that for `Cc1cc(-c2cccnc2OCC(F)(F)F)c(N(C)C(=O)c2cc(C(F)(F)F)cc(S(C)(=O)=O)c2)nn1` [Example 13, 3-Methanesulfonyl-N-methyl-N-{6-methyl-4-[2-(2,2,2-trifluoro-ethoxy)-pyridin-3-yl]-pyridazin-3-yl}-5-trifluoromethyl-benzamide] was 5.41. The value for `Cc1ccccc1-c1cc(Cl)nnc1N(C)C(=O)c1cc(C(F)(F)F)cc(S(=O)(=O)CCCC(=O)O)c1` [Example 10, 4-{3-[(6-Chloro-4-o-tolyl-pyridazin-3-yl)-methyl-carbamoyl]-5-trifluoromethyl-benzenesulfonyl}-butyric acid] was 5.09; that for `Cc1ccccc1-c1cnncc1N(C)C(=O)c1cc(C(F)(F)F)cc(S(C)(=O)=O)c1` [Example 15, 3-Methanesulfonyl-N-methyl-N-(5-o-tolyl-pyridazin-4-yl)-5-trifluoromethyl-benzamide] was 6.37; that for `Cc1ccccc1-c1cnncc1N(C)C(=O)c1cc(C(F)(F)F)cc(S(=O)(=O)CCCC(=O)OC(C)(C)C)c1` [Example 17, 4-{3-[Methyl-(5-o-tolyl-pyridazin-4-yl)-carbamoyl]-5-trifluoromethyl-benzenesulfonyl}-butyric acid tert-butyl ester] was 6.11. `COc1cc(F)ccc1-c1cnncc1N(C)C(=O)c1cc(C(F)(F)F)cc(S(C)(=O)=O)c1` [Example 14, N-[5-(4-Fluoro-2-methoxy-phenyl)-pyridazin-4-yl]-3-methanesulfonyl-N-methyl-5-trifluoromethyl-benzamide] gave a pEC50 of 6.64. `CN(C(=O)c1cc(C(F)(F)F)cc(S(C)(=O)=O)c1)c1nnc(Cl)cc1-c1ccccc1` [Example 5, N-(6-Chloro-4-phenyl-pyridazin-3-yl)-3-methanesulfonyl-N-methyl-5-trifluoromethyl-benzamide] had a pEC50 of 5.57. Regarding `CN(C(=O)c1cc(C(F)(F)F)cc(S(C)(=O)=O)c1)c1nnc(Cl)cc1-c1cccnc1OCC(F)(F)F` [Example 11, N-{6-Chloro-4-[2-(2,2,2-trifluoro-ethoxy)-pyridin-3-yl]-pyridazin-3-yl}-3-methanesulfonyl-N-methyl-5-trifluoromethyl-benzamide], the pEC50 is 5.62. For `Cc1ccccc1-c1cc(Cl)nnc1N(C)C(=O)c1cc(C(F)(F)F)cc(S(C)(=O)=O)c1` [Example 4, N-(6-Chloro-4-o-tolyl-pyridazin-3-yl)-3-methanesulfonyl-N-methyl-5-trifluoromethyl-benzamide], the negative logarithm of the EC50 (pEC50) is 5.66.

For `COc1cc(F)ccc1-c1cc(Cl)nnc1N(C)C(=O)c1cc(C(F)(F)F)cc(S(C)(=O)=O)c1` [Example 1, N-[6-Chloro-4-(4-fluoro-2-methoxy-phenyl)-pyridazin-3-yl]-3-methanesulfonyl-N-methyl-5-trifluoromethyl-benzamide], the pEC50 is 6.78.
